The Ki is the equilibrium dissociation constant of an inhibitor or competing ligand from its target. For orientation: IC50 means the concentration needed to halve the response being measured. Broadly, the MIC50 is the lowest concentration that inhibits either 50% of growth or 50% of the strains tested, depending on the study. Lower therefore signals higher susceptibility.

This passage reports Ki, IC50 and MIC50 results from ChEMBL document CHEMBL4145513, “An overview on crystal structures of InhA protein: Apo-form, in complex with its natural ligands and inhibitors” (Eur J Med Chem, 2018).

Assay [1] addresses T1, Enoyl-[acyl-carrier-protein] reductase [NADH] (Mycobacterium tuberculosis, UniProt P9WGR1, V203A).
Assay [2] addresses T1, Enoyl-[acyl-carrier-protein] reductase [NADH]. This is another data set of the same source.
Assay [3] concerns the target Enoyl-[acyl-carrier-protein] reductase [NADH] (Mycobacterium tuberculosis, UniProt P9WGR1, I215A). As to the kind of experiment: biochemical.
For assay [4], the target named is Enoyl-[acyl-carrier-protein] reductase [NADH] (Mycobacterium tuberculosis, UniProt P9WGR1, T2A). Briefly: Inhibition of Mycobacterium tuberculosis InhA T2A mutant.
The target of assay [5] is T2, Enoyl-[acyl-carrier-protein] reductase [NADH] (Mycobacterium tuberculosis, UniProt P9WGR1, S94A). Briefly: Inhibition of Mycobacterium tuberculosis InhA S94A mutant.
Assay [6] deals with Enoyl-[acyl-carrier-protein] reductase [NADH] (Mycobacterium tuberculosis, UniProt P9WGR1, I21V). Briefly: Inhibition of Mycobacterium tuberculosis InhA I21V mutant using trans-2-decenoyl-CoA as substrate by spectrophotometric analysis.
Assay [7] addresses T2, Enoyl-[acyl-carrier-protein] reductase [NADH]. Briefly: Inhibition of Mycobacterium tuberculosis InhA S94A mutant using trans-2-decenoyl-CoA as substrate by spectrophotometric analysis.
Assay [8] concerns Mycobacterium tuberculosis. Briefly: Antimycobacterial activity against Mycobacterium tuberculosis harboring InhA T2A mutant. It counts as functional.
In assay [9] the target is Enoyl-[acyl-carrier-protein] reductase [NADH] (Mycobacterium tuberculosis, UniProt P9WGR1, D2A). As to the kind of experiment: Inhibition of Mycobacterium tuberculosis InhA D2A mutant.

Take `CCCCCCc1ccc(Oc2ccccc2C)c(O)c1`: the Ki in assay [1] worked out at 0.427 µM; in assay [2], 0.913 µM; in assay [3], 0.114 µM.

`NC(=O)c1c[n+]([C@@H]2O[C@H](COP(=O)(O)OP(=O)(O)OC[C@H]3O[C@@H](n4cnc5c(N)ncnc54)[C@H](O)[C@@H]3O)[C@@H](O)[C@H]2O)ccc1C(=O)c1ccncc1`: the results for the IC50 in assay [4], in [5] and in [9] were 0.019 µM, 0.323 µM and 0.323 µM, respectively. For the same molecule, the Ki in assay [4] came to 0.005 µM; in assay [5], 0.172 µM; in [6] it was 0.0021 µM; in [7], 0.0053 µM; in assay [9], 0.172 µM. In assay [8], this molecule had an MIC50 of 1.8 µM.
